# In PMC7076352 (Pharmaceutics, 2020):
# Like-named read-outs stand apart in the source and are kept apart here.
# Assays:
# CYP3A4 [1] = conditions: read-out: Reported Km; probe substrate MID, CYP3A4, literature range ref 9; cited from earlier work
# CYP3A4 [2] = experiment: in vitro
# Description: (§1) (OHBUP-[D6]) and 5 nM 4′-hydroxydiclofenac-[^13C6] (OHDIC-[^13C6]) as internal standards (ISs). […]
# (§2) standard addition experiments. Each group included four concentration levels. For the PK […]
# (§3) The probe compounds, viz. […]
# (§4) chosen after incubating all the recruited substrates. In order to assure the linear relationship […]
# (§5) The incubation system was also optimized in terms of substrate concentrations. The substrates concentrations of […]
# CYP2E1 [3] = target: T1, CYP2E1 (Rattus norvegicus, UniProt P05182); conditions: Sprague-Dawley, rat, 15 min, pH 7.4
# T1 sequence (P05182 whole entry): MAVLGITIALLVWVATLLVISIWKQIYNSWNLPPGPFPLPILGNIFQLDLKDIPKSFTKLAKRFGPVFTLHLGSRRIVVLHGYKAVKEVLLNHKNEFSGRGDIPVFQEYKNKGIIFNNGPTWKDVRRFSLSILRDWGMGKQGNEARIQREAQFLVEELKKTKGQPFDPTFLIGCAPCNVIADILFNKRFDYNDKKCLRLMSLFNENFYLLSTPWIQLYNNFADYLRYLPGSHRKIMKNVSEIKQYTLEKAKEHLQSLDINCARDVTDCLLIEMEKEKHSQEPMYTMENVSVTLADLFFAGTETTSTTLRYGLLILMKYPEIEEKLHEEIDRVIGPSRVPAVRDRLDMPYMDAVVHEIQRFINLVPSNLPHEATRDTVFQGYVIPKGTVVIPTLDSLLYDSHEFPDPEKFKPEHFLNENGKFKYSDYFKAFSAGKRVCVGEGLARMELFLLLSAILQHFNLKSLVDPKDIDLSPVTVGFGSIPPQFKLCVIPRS
# CYP2E1 [4] = target: T1, CYP2E1; conditions: IC50 CYP2E1, single components; RLM 0.2 mg/mL, 15 min, triplicate, mean ± SD
# in vivo = experiment: in vivo; set-up: species or system Sprague-Dawley (SD) rats; conditions: Sprague-Dawley, plasma, rat
# Description: At each time, 0.5 mL of blood was collected in the heparin sodium tubes. Plasma was separated by centrifugation at 4000 rpm for 10 min and stored below −80 °C until bioanalysis. Oasis PRiME HLB SPE cartridges (1 cc/30 mg, Waters, Milford, MA, USA) were used to process the plasma samples (Supplementary Materials).
# The generic layout of instrumentation setup of the LVDI-UHPLC-MS/MS was conducted on a Shimadzu UHPLC system consisting of two LC-20ADXR pumps, a DGU-20A3R degasser, and a CBM-20A controller (Kyoto, Japan) with a SCIEX 4500 QTRAP mass spectrometer mounted with an electron spray ionization (ESI) interface as well as an electronic 6-port/2-channel valve (Foster City, CA, USA). Analyst software package (version 1.6.2, SCIEX) was implemented to control and synchronize the entire system, and also for data acquisition and processing. A single analytical run was fragmented into two phases, namely, loading and elution phases, by switching the electronic valve (Figure 2). At the loading phase, the valve was maintained at A-channel. The specimen aliquot of large volume delivered from the auto-sampler was captured onto a guard column. Meanwhile, the pumps were responsible for delivering the mobile phase at a high flow rate, aiming to dilute the sample solvent, thus facilitating the candidate constituents to concentrate on the pre-guard column. Then, the valve was automatically switched to the B-channel to trigger the elution phase. The trapped components were flushed from the pre-guard column into an analytical column, and underwent multiple reaction monitoring (MRM) analysis on the optimized LC gradients. The detailed information of LVDI-UHPLC-MS/MS analysis for pharmacokinetic and cocktail studies is shown in the Supplementary Materials section.
# CYP2B6 = experiment: In vitro cocktail CYP450 activity assay in rat liver microsomes, CYP2B6 (bupropion probe); conditions: Sprague-Dawley, rat, pooled rat liver microsomes, pH 7.4, probe bupropion (90 µM, in seven-probe cocktail), IC50 CYP2B6, single components; RLM 0.2 mg/mL, 15 min, triplicate, mean ± SD
# Description: as §1, §2, §3, §4, §5
# CYP2D6 = experiment: in vitro; conditions: Sprague-Dawley, rat
# Description: as §1, §2, §3, §4, §5
# CYP2C9 = experiment: In vitro cocktail CYP450 activity assay in rat liver microsomes, CYP2C9 (tolbutamide probe)
# Description: as §1, §2, §3, §4, §5
# CYP2C19 = experiment: In vitro cocktail CYP450 activity assay in rat liver microsomes, CYP2C19 (omeprazole probe)
# Description: as §1, §2, §3, §4, §5
# CYP1A2 [5] = target: T2, CYP1A2 (Rattus norvegicus, UniProt P04799); experiment: In vitro cocktail CYP450 activity assay in rat liver microsomes, CYP1A2 (phenacetin probe); conditions: IC50 CYP1A2, single components; RLM 0.2 mg/mL, 15 min, triplicate, mean ± SD
# T2 sequence (P04799 1-513): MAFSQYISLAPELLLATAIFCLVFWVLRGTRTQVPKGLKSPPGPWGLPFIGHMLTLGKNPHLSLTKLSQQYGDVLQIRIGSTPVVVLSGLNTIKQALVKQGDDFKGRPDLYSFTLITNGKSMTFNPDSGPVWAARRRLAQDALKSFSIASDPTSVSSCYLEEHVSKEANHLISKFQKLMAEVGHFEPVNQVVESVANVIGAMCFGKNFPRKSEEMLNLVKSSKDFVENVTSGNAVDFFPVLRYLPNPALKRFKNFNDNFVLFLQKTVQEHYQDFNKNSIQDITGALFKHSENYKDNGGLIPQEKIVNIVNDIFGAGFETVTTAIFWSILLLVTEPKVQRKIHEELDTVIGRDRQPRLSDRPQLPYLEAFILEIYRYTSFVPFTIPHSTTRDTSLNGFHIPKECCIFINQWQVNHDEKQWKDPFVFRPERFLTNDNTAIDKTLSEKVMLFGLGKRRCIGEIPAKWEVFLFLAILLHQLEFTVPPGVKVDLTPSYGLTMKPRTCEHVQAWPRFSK
# Description: as §1, §2, §3, §4, §5
# CYP1A2 [6] = target: T2, CYP1A2; conditions: read-out: Reported Km; probe substrate PHE, CYP1A2, literature range ref 9; cited from earlier work
# [7] = at the Cmax level in rat plasma, calculated from the dose–response curve
smiles,measurement,setting,value
"Cc1ncc2n1-c1ccc(Cl)cc1C(c1ccccc1F)=NC2 [MID, midazolam, reference compound]",Km,CYP3A4 [1],1 to 14 µM
same,Km,"CYP3A4 [2]; SD, rat, pH 7.4",11 ± 1.51 µM
"CC(C)=CCC[C@](C)(O[C@@H]1O[C@H](CO)[C@@H](O)[C@H](O)[C@H]1O)[C@H]1CC[C@]2(C)[C@@H]1[C@H](O)C[C@@H]1[C@@]3(C)CC[C@H](O)C(C)(C)[C@@H]3[C@@H](O[C@@H]3O[C@H](CO)[C@@H](O)[C@H](O)[C@H]3O[C@@H]3OC[C@@H](O)[C@H](O)[C@H]3O)C[C@]12C [NGR1, notoginsenoside R1]",Response (% control) CYP2E1,CYP2E1 [3],99.99 % control
same,IC50,CYP2E1 [4],122 ± 8.96 µM
same,concentration at […],in vivo; 0.083 h after oral CNP,0.26 ± 0.06 ng/mL
same,concentration at 0.25 h,in vivo; 0.25 h after oral CNP,0.36 ± 0.05 ng/mL
same,concentration at 0.5 h,in vivo; 0.5 h after oral CNP,0.53 ± 0.29 ng/mL
same,concentration at 1 h,in vivo; 1 h after oral CNP,0.45 ± 0.19 ng/mL
same,concentration at 1.5 h,in vivo; 1.5 h after oral CNP,0.33 ± 0.12 ng/mL
same,concentration at 2 h,in vivo; 2 h after oral CNP,0.32 ± 0.05 ng/mL
same,concentration at 3 h,in vivo; 3 h after oral CNP,0.44 ± 0.15 ng/mL
same,concentration at 4 h,in vivo; 4 h after oral CNP,0.38 ± 0.12 ng/mL
same,concentration at 6 h,in vivo; 6 h after oral CNP,0.37 ± 0.17 ng/mL
same,concentration at 8 h,in vivo; 8 h after oral CNP,0.46 ± 0.15 ng/mL
same,concentration at 12 h,in vivo; 12 h after oral CNP,0.38 ± 0.18 ng/mL
same,concentration at 24 h,in vivo; 24 h after oral CNP,0.17 ± 0.06 ng/mL
same,AUC(0-inf),"in vivo; po, 60 mg/kg",8.14 ± 3.6 ng·h/mL
same,AUC(0-t),"in vivo; po, 60 mg/kg",6.3 ± 2.41 ng·h/mL
same,Cmax,"in vivo; po, 60 mg/kg",0.64 ± 0.18 ng/mL
same,Tmax,"in vivo; po, 60 mg/kg",1.15 ± 1.06 h
same,half-life,"in vivo; po, 60 mg/kg",10.5 ± 3.06 h
same,concentration at 0.25 h,"in vivo; po, 60 mg·kg^−1",0.46 ± 0.18 ng/mL
same,concentration at 0.5 h,"in vivo; po, 60 mg·kg^−1",0.5 ± 0.15 ng/mL
same,concentration at 1 h,"in vivo; po, 60 mg·kg^−1",0.45 ± 0.14 ng/mL
same,concentration at 1.5 h,"in vivo; po, 60 mg·kg^−1",0.28 ± 0.1 ng/mL
same,concentration at 2 h,"in vivo; po, 60 mg·kg^−1",0.25 ± 0.11 ng/mL
same,concentration at 3 h,"in vivo; po, 60 mg·kg^−1",0.46 ± 0.2 ng/mL
same,concentration at 4 h,"in vivo; po, 60 mg·kg^−1",0.38 ± 0.26 ng/mL
same,concentration at 6 h,"in vivo; po, 60 mg·kg^−1",0.25 ± 0.06 ng/mL
same,concentration at 8 h,"in vivo; po, 60 mg·kg^−1",0.35 ± 0.06 ng/mL
same,concentration at 12 h,"in vivo; po, 60 mg·kg^−1",0.35 ± 0.14 ng/mL
same,concentration at 24 h,"in vivo; po, 60 mg·kg^−1",0.14 ± 0.04 ng/mL
same,IC50 at 15 min,CYP2B6,> 200 µM
same,IC50,"CYP3A4 [2]; Sprague-Dawley, rat, microsomes, pH 7.4, IC50 CYP3A4, single components, RLM 0.2 mg/mL, 15 min, triplicate, mean ± SD",84.6 ± 1.79 µM
same,Response (% control) CYP3A4,CYP3A4 [2]; [7],99.94 % control
same,Response (% control) CYP2D6,"CYP2D6; 15 min, pH 7.4",92.76 % control
same,IC50 at 15 min,"CYP2D6; microsomes, pH 7.4, IC50 CYP2D6",20.4 ± 3.45 µM
same,IC50 at 15 min,"CYP2C9; Sprague-Dawley, rat, pooled rat liver microsomes, pH 7.4, probe tolbutamide (18 µM, in seven-probe cocktail), IC50 CYP2C9, single components, RLM 0.2 mg/mL, 15 min, triplicate, mean ± SD",154 ± 16.6 µM
same,Response (% control) CYP2C9,CYP2C9; [7],99.99 % control
same,IC50 at 15 min,"CYP2C19; Sprague-Dawley, rat, pooled rat liver microsomes, pH 7.4, probe omeprazole (1.07 µM, in seven-probe cocktail), IC50 CYP2C19, single components, RLM 0.2 mg/mL, 15 min, triplicate, mean ± SD",108 ± 29.6 µM
same,Response (% control) CYP2C19,CYP2C19; [7],92.32 % control
same,IC50,CYP1A2 [5],112 ± 7.72 µM
"CCOc1ccc(NC(C)=O)cc1 [PHE, phenacetin]",Km,CYP1A2 [6],1.7 to 152 µM
